Reference: PubChem BioAssay AID1963441 (Molecular Pharmacology Branch, DTP, NCI, 2024)

Tested on: NCI-H1876 complex spheroid growth, % test/control
Experiment: Anticancer human tumor NCI-H1876 cell line growth inhibition [Asc];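 note: compound exposure lasted 7 days starting three days after seeding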;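 for viability, T/C: 100% = DMSO vehicle control wells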
Conditions: for IC50: curve of first compound; for viability, T/C: stronger effect = lower value
Method in brief: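 Concentration series start at each agent's clinical Cmax, or at 10 microM when none is established, and drop in half-log steps; agents are applied alone or together to complex spheroids built with HUVEC and hMSC.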

[1] = second compound 0.0316 µM, first compound 0.0316 µM
[2] = second compound 0.0316 µM, first compound 0.1 µM
[3] = second compound 0.0316 µM, first compound 0.316 µM
[4] = second compound 0.0316 µM, first compound 1 µM
[5] = second compound 0.0316 µM, first compound 3.16 µM
[6] = second compound 0.0316 µM, first compound 10 µM
[7] = second compound 0.1 µM, first compound 0.0316 µM
[8] = second compound 0.1 µM, first compound 0.1 µM
[9] = second compound 0.1 µM, first compound 0.316 µM
[10] = second compound 0.1 µM, first compound 1 µM
[11] = second compound 0.1 µM, first compound 3.16 µM
[12] = second compound 0.1 µM, first compound 10 µM
[13] = second compound 0.316 µM, first compound 0.0316 µM
[14] = second compound 0.316 µM, first compound 0.1 µM
[15] = second compound 0.316 µM, first compound 0.316 µM
[16] = second compound 0.316 µM, first compound 1 µM
[17] = second compound 0.316 µM, first compound 3.16 µM
[18] = second compound 0.316 µM, first compound 10 µM
[19] = second compound 1 µM, first compound 0.0316 µM
[20] = second compound 1 µM, first compound 0.1 µM
[21] = second compound 1 µM, first compound 0.316 µM
[22] = second compound 1 µM, first compound 1 µM
[23] = second compound 1 µM, first compound 3.16 µM
[24] = second compound 1 µM, first compound 10 µM
[25] = second compound 3.16 µM, first compound 0.0316 µM
[26] = second compound 3.16 µM, first compound 0.1 µM
[27] = second compound 3.16 µM, first compound 0.316 µM
[28] = second compound 3.16 µM, first compound 1 µM
[29] = second compound 3.16 µM, first compound 3.16 µM
[30] = second compound 3.16 µM, first compound 10 µM
[31] = second compound 10 µM, first compound 0.0316 µM
[32] = second compound 10 µM, first compound 0.1 µM
[33] = second compound 10 µM, first compound 0.316 µM
[34] = second compound 10 µM, first compound 1 µM
[35] = second compound 10 µM, first compound 3.16 µM
[36] = second compound 10 µM, first compound 10 µM

## C=C(F)C(=O)N1CCN(c2nc(OCC3CCCN3C)nc3c2CCN(c2cccc4cccc(Cl)c24)C3)CC1CC#N (stereo unspecified) + Cc1c(S(C)(=O)=O)c(-c2cc(F)cc(N3CCN(c4ccc(NS(=O)(=O)c5ccc(NC(CCN6CCC(C(=O)OCCCP(=O)(O)O)CC6)CSc6ccccc6)c(S(=O)(=O)C(F)(F)F)c5)cc4)CC3)c2)c(-c2ccc(Cl)cc2)n1C(C)C
Second compound 0.0316 µM
  IC50: 5.7 µM
Second compound 0.1 µM
  IC50: 5.38 µM
Second compound 0.316 µM
  IC50: 5.65 µM
Second compound 1 µM
  IC50: 5.54 µM
Second compound 3.16 µM
  IC50: 5.15 µM
Second compound 10 µM
  IC50: 5.43 µM
[1]
  viability, T/C: 96.7%
[2]
  viability, T/C: 97.8%
[3]
  viability, T/C: 102%
[4]
  viability, T/C: 90.5%
[5]
  viability, T/C: 97.5%
[6]
  viability, T/C: 5.25%
[7]
  viability, T/C: 83.6%
[8]
  viability, T/C: 86.1%
[9]
  viability, T/C: 91.9%
[10]
  viability, T/C: 94%
[11]
  viability, T/C: 98.1%
[12]
  viability, T/C: 2.68%
[13]
  viability, T/C: 104%
[14]
  viability, T/C: 94.9%
[15]
  viability, T/C: 96.5%
[16]
  viability, T/C: 98.8%
[17]
  viability, T/C: 102%
[18]
  viability, T/C: 1.38%
[19]
  viability, T/C: 91.5%
[20]
  viability, T/C: 97.1%
[21]
  viability, T/C: 94.1%
[22]
  viability, T/C: 92%
[23]
  viability, T/C: 99.3%
[24]
  viability, T/C: 2.82%
[25]
  viability, T/C: 90.6%
[26]
  viability, T/C: 93.6%
[27]
  viability, T/C: 97.8%
[28]
  viability, T/C: 88.5%
[29]
  viability, T/C: 86.6%
[30]
  viability, T/C: 0.42%
[31]
  viability, T/C: 95.7%
[32]
  viability, T/C: 103%
[33]
  viability, T/C: 81.9%
[34]
  viability, T/C: 91.3%
[35]
  viability, T/C: 95%
[36]
  viability, T/C: 1.21%

## C=CC(=O)N1CCN(c2nc(=O)n(-c3c(C)ccnc3C(C)C)c3nc(-c4c(O)cccc4F)c(F)cc23)C(C)C1 (stereo unspecified) + Cc1c(S(C)(=O)=O)c(-c2cc(F)cc(N3CCN(c4ccc(NS(=O)(=O)c5ccc(NC(CCN6CCC(C(=O)OCCCP(=O)(O)O)CC6)CSc6ccccc6)c(S(=O)(=O)C(F)(F)F)c5)cc4)CC3)c2)c(-c2ccc(Cl)cc2)n1C(C)C
Second compound 0.0316 µM
  IC50: > 10 µM
Second compound 0.1 µM
  IC50: > 10 µM
Second compound 0.316 µM
  IC50: > 10 µM
Second compound 1 µM
  IC50: > 10 µM
Second compound 3.16 µM
  IC50: > 10 µM
Second compound 10 µM
  IC50: > 10 µM
[1]
  viability, T/C: 91%
[2]
  viability, T/C: 89.5%
[3]
  viability, T/C: 107%
[4]
  viability, T/C: 95.2%
[5]
  viability, T/C: 103%
[6]
  viability, T/C: 109%
[7]
  viability, T/C: 85.7%
[8]
  viability, T/C: 99.6%
[9]
  viability, T/C: 101%
[10]
  viability, T/C: 106%
[11]
  viability, T/C: 108%
[12]
  viability, T/C: 107%
[13]
  viability, T/C: 91.1%
[14]
  viability, T/C: 114%
[15]
  viability, T/C: 97.6%
[16]
  viability, T/C: 103%
[17]
  viability, T/C: 109%
[18]
  viability, T/C: 104%
[19]
  viability, T/C: 105%
[20]
  viability, T/C: 99.4%
[21]
  viability, T/C: 111%
[22]
  viability, T/C: 98.6%
[23]
  viability, T/C: 110%
[24]
  viability, T/C: 114%
[25]
  viability, T/C: 96.4%
[26]
  viability, T/C: 95.3%
[27]
  viability, T/C: 102%
[28]
  viability, T/C: 97.8%
[29]
  viability, T/C: 114%
[30]
  viability, T/C: 96.7%
[31]
  viability, T/C: 99.2%
[32]
  viability, T/C: 96.5%
[33]
  viability, T/C: 99.6%
[34]
  viability, T/C: 116%
[35]
  viability, T/C: 106%
[36]
  viability, T/C: 95.1%

## CCN1C(C(=O)NC23CCC(C(=O)O)(CC2)CC3)C(c2cccc(Cl)c2F)C2(C(=O)Nc3cc(Cl)ccc32)C12CCCCC2 (stereo unspecified) + Cc1c(S(C)(=O)=O)c(-c2cc(F)cc(N3CCN(c4ccc(NS(=O)(=O)c5ccc(NC(CCN6CCC(C(=O)OCCCP(=O)(O)O)CC6)CSc6ccccc6)c(S(=O)(=O)C(F)(F)F)c5)cc4)CC3)c2)c(-c2ccc(Cl)cc2)n1C(C)C
Second compound 0.0316 µM
  IC50: > 3 µM
Second compound 0.1 µM
  IC50: > 3 µM
Second compound 0.316 µM
  IC50: > 3 µM
Second compound 1 µM
  IC50: > 3 µM
Second compound 3.16 µM
  IC50: > 3 µM
Second compound 10 µM
  IC50: 2.74 µM
Second compound 0.0316 µM, first compound 0.00949 µM
  viability, T/C: 97.3%
Second compound 0.0316 µM, first compound 0.03 µM
  viability, T/C: 85.5%
Second compound 0.0316 µM, first compound 0.0949 µM
  viability, T/C: 98.5%
Second compound 0.0316 µM, first compound 0.3 µM
  viability, T/C: 107%
Second compound 0.0316 µM, first compound 0.949 µM
  viability, T/C: 125%
Second compound 0.0316 µM, first compound 3 µM
  viability, T/C: 106%
Second compound 0.1 µM, first compound 0.00949 µM
  viability, T/C: 95%
Second compound 0.1 µM, first compound 0.03 µM
  viability, T/C: 105%
Second compound 0.1 µM, first compound 0.0949 µM
  viability, T/C: 99.5%
Second compound 0.1 µM, first compound 0.3 µM
  viability, T/C: 105%
Second compound 0.1 µM, first compound 0.949 µM
  viability, T/C: 124%
Second compound 0.1 µM, first compound 3 µM
  viability, T/C: 98.2%
Second compound 0.316 µM, first compound 0.00949 µM
  viability, T/C: 99%
Second compound 0.316 µM, first compound 0.03 µM
  viability, T/C: 96.4%
Second compound 0.316 µM, first compound 0.0949 µM
  viability, T/C: 107%
Second compound 0.316 µM, first compound 0.3 µM
  viability, T/C: 96.1%
Second compound 0.316 µM, first compound 0.949 µM
  viability, T/C: 116%
Second compound 0.316 µM, first compound 3 µM
  viability, T/C: 81.2%
Second compound 1 µM, first compound 0.00949 µM
  viability, T/C: 95.2%
Second compound 1 µM, first compound 0.03 µM
  viability, T/C: 91.7%
Second compound 1 µM, first compound 0.0949 µM
  viability, T/C: 104%
Second compound 1 µM, first compound 0.3 µM
  viability, T/C: 108%
Second compound 1 µM, first compound 0.949 µM
  viability, T/C: 121%
Second compound 1 µM, first compound 3 µM
  viability, T/C: 60.4%
Second compound 3.16 µM, first compound 0.00949 µM
  viability, T/C: 104%
Second compound 3.16 µM, first compound 0.03 µM
  viability, T/C: 107%
Second compound 3.16 µM, first compound 0.0949 µM
  viability, T/C: 96.6%
Second compound 3.16 µM, first compound 0.3 µM
  viability, T/C: 107%
Second compound 3.16 µM, first compound 0.949 µM
  viability, T/C: 110%
Second compound 3.16 µM, first compound 3 µM
  viability, T/C: 50.7%
Second compound 10 µM, first compound 0.00949 µM
  viability, T/C: 103%
Second compound 10 µM, first compound 0.03 µM
  viability, T/C: 99.7%
Second compound 10 µM, first compound 0.0949 µM
  viability, T/C: 94%
Second compound 10 µM, first compound 0.3 µM
  viability, T/C: 107%
Second compound 10 µM, first compound 0.949 µM
  viability, T/C: 115%
Second compound 10 µM, first compound 3 µM
  viability, T/C: 45.3%
